In US6812377B2, “Genetic engineering of syringyl-enriched lignin in plants” (Board of Control of Michigan Technological University, priority 2000, dated 2004):

Tests used:
[1] = molecular target: T1, recombinant PtCAD protein (Populus tremuloides, UniProt Q9M632); assay: Kinetic properties of the recombinant PtCAD protein (HPLC-UV/MS); type: biochemical; settings: substrate of PtCAD; relative, coniferaldehyde = 100
Experimental: To characterize the enzyme pH optima, the substrate and recombinant PtCAD or PtSAD protein concentrations described above were used in sodium phosphate buffers, pH 5 to 8.5. […] For inhibition kinetics, the PtCAD-mediated reduction of sinapaldehyde (1 to 200 μM) was assayed in the presence of 1 to 5 μM coniferaldehyde, and the PtSAD-catalyzed reduction of coniferaldehyde (1 to 200 μM) was assayed in the presence of 1 to 5 μM sinapaldehyde. All reactions were terminated by the addition of 10 μL of 6 N HCI (to bring the pH to 2) and 500 ng of internal standard o-coumaric acid and analyzed by HPLC-UV/MS. An aliquot of 100 μL of reaction mixture was injected directly onto a Supelcosil LC-ABZ column (15 cm×4.6 mm×5 μm; Supelco, Bellefonte, Pa.) with automatic sample injection and separated isocratically with a Hewlett-Packard (HP) 1100 liquid chromatography system at 40° C. and a flow rate of 0.25 mL/min. […] The reaction products were identified and confirmed by comparing the ion fragmentation patterns of the product and the authentic standard in MS scanning mode at 70 V. The product quantity and Km, Vmax, kcat, and apparent inhibition constant (Ki) values (means±SE) were determined as described (Osakabe et al., 1999; Li et al., 2000). The results of the inhibition kinetics for both the CAD enzyme (i.e. Table 2) and the SAD enzyme (i.e., Table 3) using a variety of substrates are illustrated below.

[2] = tested on: PtSAD recombinant protein; assay: SAD enzyme activity assay, single and mixed substrates (HPLC-MS); type: biochemical, Populus tremuloides; settings: mixture of coniferaldehyde and sinapaldehyde, pH 7.0
Experimental: After 10 min at 30° C., the reaction was terminated and extracted with 0.5 ml ethyl acetate. The extraction was repeated 4 times and the combined ethyl acetate was evaporated and dissolved in the HPLC mobile phase for LC-MS identification and quantitation of the reaction products as we did before (Osakabe et al., 1999; Li et al. 2000). […] The SAD reactions with mixed substrates, sinapaldehyde and coniferyl aldehyde, were therefore conducted at the optimal pH 7.0 under above-described conditions. […] To characterize the enzyme pH optima, the substrate and recombinant PtCAD or PtSAD protein concentrations described above were used in sodium phosphate buffers, pH 5 to 8.5. All reactions were for 10 minutes at 30° C. An aliquot of 100 μL of reaction mixture was injected directly onto a Supelcosil LC-ABZ column (15 cm×4.6 mm×5 μm; Supelco, Bellefonte, Pa.) with automatic sample injection and separated isocratically with a Hewlett-Packard (HP) 1100 liquid chromatography system at 40° C. and a flow rate of 0.25 mL/min. […] The reaction products were identified and confirmed by comparing the ion fragmentation patterns of the product and the authentic standard in MS scanning mode at 70 V. The product quantity and Km, Vmax, kcat, and apparent inhibition constant (Ki) values (means±SE) were determined as described (Osakabe et al., 1999; Li et al., 2000). The results of the inhibition kinetics for both the CAD enzyme (i.e. Table 2) and the SAD enzyme (i.e., Table 3) using a variety of substrates are illustrated below.

[3] = molecular target: T1, recombinant PtCAD protein; assay: PtCAD enzyme activity with a mixture of coniferaldehyde and sinapaldehyde (HPLC-MS); type: biochemical
Description: A guaiacyl pathway gene encoding coniferyl alcohol dehydrogenase (CAD, FIG. 1) from Populus tremuloides (GenBank #AF217957) was first cloned. This cDNA was designated as PtCAD (GenBank #AF217957). E. coli-expressed recombinant PtCAD protein was characterized for its catalytic activity with coniferaldehyde and sinapaldehyde. Because monolignol biosynthetic pathway intermediates are present together in lignifying tissues (Osakabe et al., 1999; Li et al. 2000), the PtCAD enzyme activity with a mixture of coniferaldehyde and sinapaldehyde was assayed. As shown in FIG. 5 (a) and (c), the reaction mixture was separated by HPLC after the enzyme reaction. […]
An aliquot of 100 μL of reaction mixture was injected directly onto a Supelcosil LC-ABZ column (15 cm×4.6 mm×5 μm; Supelco, Bellefonte, Pa.) with automatic sample injection and separated isocratically with a Hewlett-Packard (HP) 1100 liquid chromatography system at 40° C. and a flow rate of 0.25 mL/min. […] The reaction products were identified and confirmed by comparing the ion fragmentation patterns of the product and the authentic standard in MS scanning mode at 70 V. The product quantity and Km, Vmax, kcat, and apparent inhibition constant (Ki) values (means±SE) were determined as described (Osakabe et al., 1999; Li et al., 2000). […]

T1 sequence (Q9M632 entry or part of it): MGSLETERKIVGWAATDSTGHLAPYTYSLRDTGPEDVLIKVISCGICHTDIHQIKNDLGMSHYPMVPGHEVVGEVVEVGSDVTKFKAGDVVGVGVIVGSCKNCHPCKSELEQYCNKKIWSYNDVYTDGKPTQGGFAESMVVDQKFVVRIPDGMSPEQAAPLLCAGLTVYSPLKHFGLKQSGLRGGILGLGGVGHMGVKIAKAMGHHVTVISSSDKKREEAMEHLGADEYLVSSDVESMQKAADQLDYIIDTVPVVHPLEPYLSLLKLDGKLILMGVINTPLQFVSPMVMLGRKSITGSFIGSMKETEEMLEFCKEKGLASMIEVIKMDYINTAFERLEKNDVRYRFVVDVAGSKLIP

COc1cc(/C=C/C=O)ccc1O [Coniferaldehyde]
Vmax/Km [1]: 100%
reaction of PtSAD with the substrate in a mixture [2]: would not react
reaction of PtCAD with the substrate in a mixture [3]: Only coniferyl alcohol was formed
